The source of these data is patent US5230998A, “Method for the prescreening of drugs targeted to the V3 hypervariable loop of the HIV-1 envelope glycoprotein gp 120” (priority 1991, dated 1993).

The test system of assay [1] is HIV-1. As to conditions: literature; cited from earlier work.
In assay [2] the test system is HIV-1 reverse transcriptase. As to conditions: literature; cited from earlier work.
Assay [3] concerns the target T1, HIV-1 gp120 V3 hypervariable loop (Human immunodeficiency virus type 1 group M subtype B, UniProt P03375).
T1 construct: Polystyrene plates coated with recombinant gp120 and gp160, respectively; purchased American Bio-Technologies, Inc., Cambridge, Mass; host or cells: baculovirus expression system
The experiment in a line: biochemical. Format: binding. The settings on record: excess of serum proteins in medium. As for the experimental part: Wells of 96 well polystyrene plates (Immulon 2, Dynatech Laboratories, Inc., Chantilly, Va.) were coated with synthetic peptides (200 μl; 20μg/ml in 0.1 M Tris-HCl, pH 8.8) overnight at 20° C. The peptides were from the sequence of HIV-1, clone BH 10 envelope glycoproteins gp120 and gp41 (Neurath, A. R., Strick, N., and Lee, E. Y. S. (1990), "B-cell Epitope Mapping of Human Immunodeficiency virus (HIV-1) Envelope Glycoprotein with Long (19 to 36-residue) Synthetic Peptides", J. Gen. Virol., 71., 85-95) and from V3 hypervariable loops of 21 distinct HIV-1 isolates (clones) Neurath, A. R., and Strick, N., (1990), "Confronting the Hypervariability of an Immunodominant Epitope Eliciting Virus Neutralizing Antibodies from the Envelope Glycoprotein of the Human Immunodeficiency Virus Type 1 (HIV-1)", Molec. Immunol., 27, 539-549. The latter peptides corresponded to full-length V3 loops generated by disulfide bonds between N- and C- terminal cysteine residues. After washing with 0.14 M NaCl, 0.01 M Tris, 0.02% NaN3 (TS), the wells were postcoated with a mixture of bovine serum albumin (BSA) and gelatine (10 and 2.5 mg/ml, respectively) in TS. BSA was omitted from the postcoating solution for RIA tests in which antibodies to ATA were used. Polystyrene plates coated with recombinant gp120 and gp160, respectively, (500 ng/well; from American Bio-Technologies, Inc., Cambridge, Mass. and MicroGeneSys, Inc., West Haven, Conn., respectively) were also used for RIA and ELISA tests.
To define sites on gp120/gp41 reacting with ATA, the inhibitory effect of this compound was studied by RIA tests using gp120- and gp160-coated wells, respectively, and antisera (final dilutions 1:150) against synthetic peptides from the entire sequence of gp120/gp41 of HIV-1 BH 10. The preparation and biological properties of these antisera were described elsewhere (Neurath et al., (1990), J. Gen. Virol., 71, 85-95). Each of the antisera was diluted in a mixture of fetal bovine serum and goat serum (9:1) containing 0.1% Tween 20, adjusted to pH 8. ATA (final concentration 50 μg/ml) was added in one set of assays, but was omitted from a parallel set. After incubation overnight at 25° C., the plates were washed with TS. Attached rabbit IgG was detected using ^125 I-labeled anti-rabbit IgG, as described before (Neurath et al., 1990, J. Gen. Virol., 71, 85-95). Similarly, the inhibitory effect of ATA on the reaction of peptides derived from gp120/gp41 and of peptides derived from V3 hypervariable loops from gp120 of distinct HIV-1 isolates with the respective homologous anti-peptide antisera was studied. In the latter case, antisera were diluted 1:1,000 for the assays.
(§1) The inhibitory effect of ATA and of other compounds on the reaction between antibodies with predetermined specificity and gp120 (or synthetic peptides derived from it) was determined from the formula: [formula] An analogous formula was used to calculate the percentage of inhibition from optical density readings resulting from ELISA tests.
Chemicals other than ATA were screened for inhibitory activity essentially as described above. […] Chemicals with inhibitory activity established by the respective immunoassays were screened further for antiviral activity.
Commercially available ATA is a mixture of monomers and polymers of distinct molecular masses (Gonzalez et al., (1979) Biochem. Biophys. Acta, 562, 534-545); Cushman et al., (1991), J. Chem., 34, 329-337). The monomers [molecular mass (M.W.)=422.4 daltons] were separated from the polymers. ATA (20 mg/ml in the form of free acid neutralized with 0.4 M NaOH) was dialyzed against H2 O in a dialysis membrane with a molecular mass cutoff of 500 daltons.

Assay [4] deals with V3 hypervariable loop peptides from gp120 from 21 distinct HIV-1 isolates (clones). Kind of assay: Inhibition of the reaction of V3 hypervariable loop peptides from 21 HIV-1 isolates with homologous anti-peptide antisera. Format: binding. The settings on record: 21 HIV-1 isolates (clones); antisera 1:1,000; FIG. 7A, 7B.
Text: FIGS. 7A and 7B are bar graphs depicting the inhibitory effect of deuteroporphyrin IX,2,4 (4,2) hydroxyethylvinyl (FIG. 7A) and of meso-tetra(4-carboxyphenyl)porphine (FIG. 7B) on the reaction of full-length V3 hypervariable loop peptides from gp120 from 21 distinct HIV-1 isolates (clones) with homologous anti-peptide antisera. Peptide coated wells of polystyrene plates were reacted in the presence and absence of the inhibitory compounds with the respective rabbit antisera diluted 1:1,000, and the attachment of rabbit IgG was subsequently determined using ^125 I-labeled anti-rabbit IgG. […]
(§2) To define sites on gp120/gp41 reacting with ATA, the inhibitory effect of this compound was studied by RIA tests using gp120- and gp160-coated wells, respectively, and antisera (final dilutions 1:150) against synthetic peptides from the entire sequence of gp120/gp41 of HIV-1 BH 10. […] Attached rabbit IgG was detected using ^125 I-labeled anti-rabbit IgG, as described before (Neurath et al., 1990, J. Gen. Virol., 71, 85-95). […]
as §1

Assay [5] relates to gp120 V3 hypervariable loop. The experiment in a line: Binding of gp120 to monoclonal antibodies specific for the V3 hypervariable loop in the absence of other proteins. Further details: species or system HIV-1. As to conditions: 20-fold excess over gp120, absence of other proteins. The text has this:
The inhibitory effect of dextran sulfate on gp120-antibody binding under these conditions was confirmed. The apparently contradictory results concerning binding of dextran sulfate to gp120 obtained by different methods can probably be explained by differences in equilibrium constants defining the binding reaction of gp120 with ATA and dextran sulfate, respectively. […] The relatively weak binding of dextran sulfate to the V3 hypervariable loop may contribute to the ineffectiveness of this substance in inhibiting HIV-1 replication in vivo (Mitsuya et al., (1990), Science, 249, 1533-1544).

In assay [6] the test system is gp120 V3 hypervariable loop. The settings on record: 20-fold excess over gp120, absence of other proteins; cited from earlier work.
The subject of assay [7] is HIV-1. As to conditions: literature; cited from earlier work. This is another data set of the same source.
Assay [8] relates to gp120 expressed on the surface of HIV-1-infected cells. The settings on record: literature; cited from earlier work.
A further assay deals with CD4 receptor. As to conditions: literature; cited from earlier work.
Assay [9] concerns HIV-1 isolates IIIB, MN, SF2 and RF. Kind of assay: Antiviral activity of porphyrin derivatives for distinct HIV-1 isolates in promonocytic U937 cells (FIG. 12A). The assay is classed as cell-based. As for the experimental part:
(§3) FIG. 12A and FIG. 12B are graphs depicting antiviral activity of selected porphyrin derivatives for distinct HIV-1 isolates in T-lymphocytic (MT-2) (FIG. 12B) and a promonocytic (U937) (FIG. 12A) cell lines. […] Therefore, the antiviral activity against HIV-1 RF could not be tested in this cell line. Note that the higher the value of EC50, the less efficient is the drug for inhibiting HIV-1 replication.
(§4) Four of the porphyrin derivatives (see FIG. 12) were tested for their inhibiting activity and the replication of four distinct HIV-1 isolates: IIIB, MN, SF2 and RF in two different cell lines, U937 and MT-2.

Assay [10] shares this test system. Kind of assay: Antiviral activity of porphyrin derivatives for distinct HIV-1 isolates in T-lymphocytic MT-2 cells (FIG. 12B). The assay is classed as cell-based. On the procedure:
as §3, §4

The next assay concerns the target T2, V3 peptide from HIV-1 SC (Human immunodeficiency virus type 1 (SC ISOLATE), UniProt P05878).
T2 construct: cut from Env gp160
Kind of assay: Inhibition of the reaction of antibodies with the V3 peptide from HIV-1 SC (FIG. 7B). As to conditions: as compared with HXB-2 and HXB-3 V3 peptides. Format: binding.
Text: FIGS. 7A and 7B are bar graphs depicting the inhibitory effect of deuteroporphyrin IX,2,4 (4,2) hydroxyethylvinyl (FIG. 7A) and of meso-tetra(4-carboxyphenyl)porphine (FIG. 7B) on the reaction of full-length V3 hypervariable loop peptides from gp120 from 21 distinct HIV-1 isolates (clones) with homologous anti-peptide antisera. Peptide coated wells of polystyrene plates were reacted in the presence and absence of the inhibitory compounds with the respective rabbit antisera diluted 1:1,000, and the attachment of rabbit IgG was subsequently determined using ^125 I-labeled anti-rabbit IgG.
as §2, §1

T2 sequence (P05878 296-330): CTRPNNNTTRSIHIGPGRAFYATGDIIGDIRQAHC

For hemin [substance #13], the “inhibition of HIV-1 replication / antiviral activity” value in the assay on HIV-1 [1] is “anti-HIV-1 activity”.

In the case of `CC1=C/C(=C(\c2ccc(N)c(S(=O)(=O)[O-])c2)c2ccc(N)c(S(=O)(=O)O)c2)C=C(S(=O)(=O)[O-])C1=N.[Na+].[Na+]` [substance #145, acid fuchsin], in assay [2], the “inhibition of HIV-1 reverse transcriptase” value was “inhibited the reverse transcriptase of HIV-1”. Also, the “reaction with the V3 hypervariable loop as determined by RIA (ELISA) tests” value (shortened to “reaction with the V3 hypervariable loop”) in assay [3] is reported as “did not react with the V3 hypervariable loop”.

Regarding “deuteroporphyrin IX, 2,4 (4,2) hydroxy-ethyl vinyl [substance #151]”, the “inhibition of interaction between V3 hypervariable loop peptides and homologous antibodies” value in assay [4] was “inhibited the interaction between V hypervariable loop peptides and homologous antibodies corresponding to all 21 HIV-1 isolates (clones) tested”.

Regarding dextran sulfate, in [5], the “inhibitory effect on gp120-antibody binding” value was “confirmed”. Moreover, the “blocking of binding of gp120 to monoclonal antibodies” value in [6] was “blocked”. Also, the “reaction with the V3 hypervariable loop” value in assay [3] is “did not react with the V3 hypervariable loop”. For the same compound, the “inhibition of HIV-1 replication in vivo” value with HIV-1 [7] was “ineffectiveness”. For the same compound, the “inhibition of the reaction of gp120 on infected cells with monoclonal anti-gp120 antibodies” value (shortened to “inhibition of the reaction of gp120”) in [8] is “inhibit the reaction of gp120 expressed on the surface of HIV-1-infected cells with monoclonal anti-gp120 antibodies”.

As for `Cc1cc(-c2ccc(/N=N/c3ccc4c(S(=O)(=O)O)cc(S(=O)(=O)O)c(N)c4c3O)c(C)c2)ccc1/N=N/c1ccc2c(S(=O)(=O)O)cc(S(=O)(=O)O)c(N)c2c1O` [substance #28, Evans Blue], the “inhibition of the interaction with CD4 receptor” value in the assay on CD4 receptor is recorded as “inhibited the interaction of the CD4 receptor for HIV-1”. For the same compound, the “inhibition of HIV-1 reverse transcriptase” value in assay [2] was “inhibited the reverse transcriptase of HIV-1”. The “reaction with the V3 hypervariable loop” value in assay [3] is “did not react with the V3 hypervariable loop”. The “inhibition of the reaction of gp120” value in [8] is reported as “inhibit the reaction of gp120 expressed on the surface of HIV-1-infected cells with monoclonal anti-gp120 antibodies”.

In the case of `O=C(O)c1ccc(-c2c3nc(c(-c4ccc(C(=O)O)cc4)c4ccc([nH]4)c(-c4ccc(C(=O)O)cc4)c4nc(c(-c5ccc(C(=O)O)cc5)c5ccc2[nH]5)C=C4)C=C3)cc1` [substance #160, meso-tetra (4-carboxyphenyl) porphine], the “inhibition of interaction between V3 hypervariable loop peptides and homologous antibodies” value in assay [4] was “inhibited the interaction between V hypervariable loop peptides and homologous antibodies corresponding to all 21 HIV-1 isolates (clones) tested”. Also, the “inhibition of HIV-1 replication in U937 cells” value in [9] was “most effective agent with broad specificity”. In addition, the “inhibition of HIV-1 replication in MT-2 cells” value in assay [10] is given as “most effective agent with broad specificity”. Further, the “inhibitory activity on the reaction of antibodies with the V3 peptide” value against V3 peptide from HIV-1 SC is recorded as “relatively low inhibitory activity”.

Regarding `Cc1ccc(C(=O)Nc2ccc(S(=O)(=O)O)c3cc(S(=O)(=O)O)cc(S(=O)(=O)O)c23)cc1NC(=O)c1cccc(NC(=O)Nc2cccc(C(=O)Nc3cc(C(=O)Nc4ccc(S(=O)(=O)O)c5cc(S(=O)(=O)O)cc(S(=O)(=O)O)c45)ccc3C)c2)c1` [suramin, reference compound], the “inhibition of HIV-1 reverse transcriptase” value in [2] is given as “inhibited the reverse transcriptase of HIV-1”. Further, in assay [8], the “inhibition of the reaction of gp120” value is reported as “inhibit the reaction of gp120 expressed on the surface of HIV-1-infected cells with monoclonal anti-gp120 antibodies”.
